The structures appear in SMILES notation. pIC50: −log10 of the molar value.

Experimental findings from patent publication US9346801B2, “Substituted 7-oxo-pyrido[2,3-d]pyrimidines and methods of use” (AMGEN INC., priority 2013, dated 2016) are described below.

Holding throughout (assay type): cell-based
The test system of test [1] is HCC827 (Δ746-750) NSCLC cells. Put plainly: Inhibition of proliferation of NSCLC cell lines, HCC827. Particulars: Homo sapiens, 72 h, Cell Titer Glow, read-out: HCC827 cell killing IC50. As to the method:
(§1) NSCLC cell lines H1975 (T790M/L858R), HCC827 (Δ746-750) and A549 (wild-type) were seeded in 96-well tissue culture plates (Corning, Lowell, Mass.) at 5,000 cells/well (H1975) and 4,000 cells/well (HCC827 and A549) in 95 μL of cell growth media overnight. Compounds starting at 10 mM concentration and diluted 8 times (4-fold dilutions) in DMSO were diluted 50 fold in RPM1 then 5 μL was added to cells. After 72 h, viable cell signal was quantified using Cell Titer Glow (Promega, Madison, Wis.) and a SpectraMax M5 plate reader (Molecular Devices, Sunnyvale, Calif.) per manufacturer's instructions. Final DMSO concentration in test and control wells was 0.1%. No DSMO effect was noted on cell growth.

In test [2] the test system is H1975 (T790M/L858R) NSCLC cells. Put plainly: Inhibition of proliferation of NSCLC cell lines, H1975. Particulars: Cell Titer Glow; for pIC50: Homo sapiens, NCI-H1975, 72 h, read-out: H1975 cell killing IC50; for H1975 cell killing IC50: 72 h. As to the method:
as §1

Test [3] deals with T1, wild-type EGFR phosphorylation in A549 NSCLC cells (Homo sapiens, UniProt P00533).
T1 construct: Wild-type A549 cells were challenged with 100 ng/ml EGF for 15 min before collection; endogenous in cells; host or cells: A549 NSCLC cells
Put plainly: Detection of pEGFR on NSCLC cell lines (MSD multiplex), A549. The conditions noted are these: 60 min compound, 100 ng/ml EGF for 15 min. As to the method: (§2) The effects of compounds on the phosphorylation of wild-type, T790M mutant, and Exon19 deletion (A746-750) EGFR were monitored using Mesoscalc™ multiplex assays (MSD), in which levels of phosphorylated EGFR protein were determined using total […] levels as a control. H1975 (T790M/L858R), HCC827 (Δ746-750) and A549 (wild-type EGFR) NSCLC cells were plated on 6-well tissue culture plates, serum starved for overnight and treated with 9 concentrations of compound starting at 2 μM (5-fold dilutions) for 60 min. Wild-type A549 cells were challenged with 100 ng/ml EGF for 15 min before collection. Cells were lysed according to manufacturer's instructions and lysates processed for analysis in the […]) multiplex plate reader.

Test [4] addresses T2, T790M mutant EGFR phosphorylation in H1975 (T790M/L858R) NSCLC cells (Homo sapiens, UniProt P00533, L858R/T790M).
T2 construct: endogenous in cells; host or cells: H1975 NSCLC cells
Put plainly: Detection of pEGFR on NSCLC cell lines (MSD multiplex), H1975. The conditions noted are these: serum starved, 60 min compound. As to the method:
as §2

In test [5] the target is T3, Exon19 deletion (Δ746-750) EGFR phosphorylation in HCC827 NSCLC cells (Homo sapiens, UniProt P00533, DEL746-750).
T3 construct: endogenous in cells; host or cells: HCC827 NSCLC cells
Kind of test: Detection of pEGFR on NSCLC cell lines (MSD multiplex), HCC827. The conditions noted are these: HCC827 (Δ746-750) cells, serum starved, 60 min compound. As to the method:
as §2

T3 sequence (P00533 with tags, fused parts or gaps DEL746-750): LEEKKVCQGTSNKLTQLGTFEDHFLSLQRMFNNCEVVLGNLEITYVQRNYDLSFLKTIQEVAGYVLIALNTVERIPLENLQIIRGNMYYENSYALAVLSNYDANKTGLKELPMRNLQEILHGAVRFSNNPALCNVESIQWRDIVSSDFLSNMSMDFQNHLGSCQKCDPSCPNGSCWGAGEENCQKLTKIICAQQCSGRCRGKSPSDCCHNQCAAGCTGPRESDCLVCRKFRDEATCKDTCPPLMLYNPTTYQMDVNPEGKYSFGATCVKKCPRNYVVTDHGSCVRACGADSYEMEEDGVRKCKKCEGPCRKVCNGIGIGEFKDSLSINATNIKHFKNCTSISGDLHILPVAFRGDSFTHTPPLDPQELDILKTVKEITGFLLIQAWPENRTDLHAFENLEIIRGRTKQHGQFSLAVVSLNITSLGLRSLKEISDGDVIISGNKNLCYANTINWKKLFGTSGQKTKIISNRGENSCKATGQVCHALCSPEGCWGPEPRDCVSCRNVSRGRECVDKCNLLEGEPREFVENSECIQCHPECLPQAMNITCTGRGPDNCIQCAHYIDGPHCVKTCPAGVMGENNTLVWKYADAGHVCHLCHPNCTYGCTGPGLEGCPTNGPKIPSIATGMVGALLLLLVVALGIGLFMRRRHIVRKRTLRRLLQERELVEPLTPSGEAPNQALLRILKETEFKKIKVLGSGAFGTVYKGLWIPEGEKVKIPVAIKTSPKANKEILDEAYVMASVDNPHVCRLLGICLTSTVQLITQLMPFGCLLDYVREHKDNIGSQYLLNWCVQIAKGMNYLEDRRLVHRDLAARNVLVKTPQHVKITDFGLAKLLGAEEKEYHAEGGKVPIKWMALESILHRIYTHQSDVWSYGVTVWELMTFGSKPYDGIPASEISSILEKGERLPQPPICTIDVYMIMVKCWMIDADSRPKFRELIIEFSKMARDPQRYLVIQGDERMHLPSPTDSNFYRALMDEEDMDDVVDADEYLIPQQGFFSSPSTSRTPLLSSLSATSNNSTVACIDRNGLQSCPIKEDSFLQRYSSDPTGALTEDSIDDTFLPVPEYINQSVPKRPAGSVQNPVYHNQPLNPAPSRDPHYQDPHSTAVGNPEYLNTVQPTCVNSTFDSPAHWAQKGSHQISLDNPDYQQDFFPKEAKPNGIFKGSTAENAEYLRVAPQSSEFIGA
T1 sequence (P00533 25-1210): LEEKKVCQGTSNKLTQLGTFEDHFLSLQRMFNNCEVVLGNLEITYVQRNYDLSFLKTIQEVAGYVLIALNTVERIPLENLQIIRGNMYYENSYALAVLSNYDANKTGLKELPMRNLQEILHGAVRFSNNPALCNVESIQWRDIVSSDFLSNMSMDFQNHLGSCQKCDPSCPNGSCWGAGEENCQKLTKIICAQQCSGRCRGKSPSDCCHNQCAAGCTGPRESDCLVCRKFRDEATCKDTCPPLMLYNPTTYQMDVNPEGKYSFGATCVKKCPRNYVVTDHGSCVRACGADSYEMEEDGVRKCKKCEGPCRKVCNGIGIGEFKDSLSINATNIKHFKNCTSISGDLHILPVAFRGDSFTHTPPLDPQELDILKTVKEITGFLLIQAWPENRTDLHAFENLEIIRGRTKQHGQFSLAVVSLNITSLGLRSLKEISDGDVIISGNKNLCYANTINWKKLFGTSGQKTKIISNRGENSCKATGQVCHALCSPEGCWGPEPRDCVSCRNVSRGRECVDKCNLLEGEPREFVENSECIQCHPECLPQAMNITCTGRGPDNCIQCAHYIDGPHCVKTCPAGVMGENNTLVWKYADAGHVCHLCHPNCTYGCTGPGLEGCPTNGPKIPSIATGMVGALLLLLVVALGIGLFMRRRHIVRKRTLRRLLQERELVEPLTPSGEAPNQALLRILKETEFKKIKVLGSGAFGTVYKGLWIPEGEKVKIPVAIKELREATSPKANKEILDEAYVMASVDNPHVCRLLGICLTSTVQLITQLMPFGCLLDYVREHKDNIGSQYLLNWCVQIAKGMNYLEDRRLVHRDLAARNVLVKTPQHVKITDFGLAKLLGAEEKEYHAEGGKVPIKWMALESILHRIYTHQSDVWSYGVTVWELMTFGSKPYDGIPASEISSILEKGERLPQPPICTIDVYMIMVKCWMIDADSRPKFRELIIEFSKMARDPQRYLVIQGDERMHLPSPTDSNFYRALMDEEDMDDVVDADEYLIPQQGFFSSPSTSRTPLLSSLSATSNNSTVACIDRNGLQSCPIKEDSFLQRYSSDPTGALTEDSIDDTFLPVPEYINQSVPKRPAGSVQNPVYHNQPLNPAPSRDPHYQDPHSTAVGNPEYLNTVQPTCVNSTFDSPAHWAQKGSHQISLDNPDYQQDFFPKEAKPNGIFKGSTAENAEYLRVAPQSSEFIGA
T2 sequence (P00533 25-1210 T790M/L858R): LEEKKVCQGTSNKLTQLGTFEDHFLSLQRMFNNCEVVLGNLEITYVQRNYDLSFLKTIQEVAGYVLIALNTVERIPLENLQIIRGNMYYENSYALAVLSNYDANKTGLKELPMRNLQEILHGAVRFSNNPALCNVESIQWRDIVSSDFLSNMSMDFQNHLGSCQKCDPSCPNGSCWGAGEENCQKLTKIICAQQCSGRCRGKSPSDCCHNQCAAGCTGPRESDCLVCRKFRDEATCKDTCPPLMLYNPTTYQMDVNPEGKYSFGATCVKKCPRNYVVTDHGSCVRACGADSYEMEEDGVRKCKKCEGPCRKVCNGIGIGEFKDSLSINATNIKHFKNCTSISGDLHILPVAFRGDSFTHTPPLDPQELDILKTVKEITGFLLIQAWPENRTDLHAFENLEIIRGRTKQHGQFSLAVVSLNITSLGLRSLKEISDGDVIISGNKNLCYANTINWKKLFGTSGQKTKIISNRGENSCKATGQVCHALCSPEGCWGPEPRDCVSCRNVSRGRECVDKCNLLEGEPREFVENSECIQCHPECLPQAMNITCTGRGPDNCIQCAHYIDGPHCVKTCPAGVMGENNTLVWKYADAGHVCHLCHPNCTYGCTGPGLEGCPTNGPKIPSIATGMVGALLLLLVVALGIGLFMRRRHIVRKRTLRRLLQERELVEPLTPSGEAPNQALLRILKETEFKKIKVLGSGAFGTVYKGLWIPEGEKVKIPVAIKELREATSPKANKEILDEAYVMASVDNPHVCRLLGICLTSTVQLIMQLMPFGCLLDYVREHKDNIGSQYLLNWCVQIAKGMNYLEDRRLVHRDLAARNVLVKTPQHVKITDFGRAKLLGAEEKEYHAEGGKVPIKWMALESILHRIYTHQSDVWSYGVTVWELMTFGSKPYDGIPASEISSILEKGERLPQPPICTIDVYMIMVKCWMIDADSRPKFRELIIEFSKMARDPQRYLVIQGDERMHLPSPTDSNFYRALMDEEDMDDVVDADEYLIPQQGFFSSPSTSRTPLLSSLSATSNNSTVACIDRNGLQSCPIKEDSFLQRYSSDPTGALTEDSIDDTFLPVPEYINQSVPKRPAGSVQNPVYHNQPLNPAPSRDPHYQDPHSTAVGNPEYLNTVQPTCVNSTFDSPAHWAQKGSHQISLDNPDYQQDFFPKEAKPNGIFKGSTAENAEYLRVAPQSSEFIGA

For `C=CC(=O)Nc1cccc(-n2c(=O)cc(C)c3cnc(Nc4ccc(N5CCN(C)CC5)cc4)nc32)c1` [Example 17, N-(3-(5-methyl-2-((4-(4-methylpiperazin-1-yl)phenyl)amino)-7-oxopyrido[2,3-d]pyrimidin-8(7H)-yl)phenyl)acrylamide], the pIC50 is 8.14 in test [1] and 8.44 in test [2].
Consider `C=CC(=O)Nc1cccc(-n2c(=O)c(CC)cc3cnc(Nc4ccc(N5CCN(C)CC5)cc4OC)nc32)c1` [Example 6, N-(3-(6-ethyl-2-((2-methoxy-4-(4-methyl-1-piperazinyl)phenyl)amino)-7-oxopyrido[2,3-d]pyrimidin-8(7H)-yl)phenyl)-2-propenamide], for which the pIC50 in test [2] is 7.92; in test [3] it was 8.09; in test [4], 8.37.
With `C=CC(=O)Nc1cccc(-n2c(=O)ccc3cnc(Nc4ccc(N5CCN(C)CC5)cc4)nc32)c1` [Example 4, N-(3-(2-((4-(4-methyl-1-piperazinyl)phenyl)amino)-7-oxopyrido[2,3-d]pyrimidin-8(7H)-yl)phenyl)-2-propenamide], the pIC50 in test [1] was 9.00; in test [2] it was 9.15.
Taken in the same sequence, the figures for `C/C=C/C(=O)Nc1cccc(-n2c(=O)ccc3cnc(Nc4ccc(N5CCN(C)CC5)cc4OC)nc32)c1` [Example 3, (2E)-N-(3-(2-((2-methoxy-4-(4-methyl-1-piperazinyl)phenyl)amino)-7-oxopyrido[2,3-d]pyrimidin-8(7H)-yl)phenyl)-2-butenamide] were 6.90 and 6.49.
`C=CC(=O)Nc1cccc(-n2c(=O)ccc3cnc(Nc4ccc(NC5CN(CCF)C5)cc4OC)nc32)c1` [Example 11, N-(3-(2-((4-((1-(2-fluoroethyl)-3-azetidinyl)amino)-2-methoxyphenyl)amino)-7-oxopyrido[2,3-d]pyrimidin-8(7H)-yl)phenyl)-2-propenamide]: the pIC50 in test [1] was 8.52; in test [2], 8.02; in test [5], 8.30; in test [3], 6.81; in test [4], 8.22.
`C=CC(=O)Nc1cccc(-n2c(=O)cc(C)c3cnc(Nc4ccc(NC5CN(CCF)C5)cc4OC)nc32)c1` [Example 16, N-(3-(2-((4-((1-(2-fluoroethyl)-3-azetidinyl)amino)-2-methoxyphenyl)amino)-5-methyl-7-oxopyrido[2,3-d]pyrimidin-8(7H)-yl)phenyl)-2-propenamide]: the figures for the negative logarithm of the IC50 (pIC50) in test [1] and in test [2] were 7.74 and 7.66, respectively.
The like results for `C=CC(=O)Nc1cccc(-n2c(=O)ccc3cnc(Nc4ccc(N5CCN(C)CC5)cc4Cl)nc32)c1` [Example 15, N-(3-(2-((2-chloro-4-(4-methyl-1-piperazinyl)phenyl)amino)-7-oxopyrido[2,3-d]pyrimidin-8(7H)-yl)phenyl)-2-propenamide] were, in that order, 8.46 and 7.96.
Regarding `C=CC(=O)Nc1cccc(-n2c(=O)ccc3cnc(Nc4ccc(N5CCN(C)CC5)cc4OC)nc32)c1` [Example 1, N-(3-(2-((2-methoxy-4-(4-methyl-1-piperazinyl)phenyl)amino)-7-oxopyrido[2,3-d]pyrimidin-8(7H)-yl)phenyl)-2-propenamide], the pIC50 in test [1] is 8.40; in test [2], 8.10; in test [5] it was 8.47; in test [3], 7.12; in test [4], 8.49.
In the case of `COc1cc(N2CCN(C)CC2)ccc1Nc1ncc2ccc(=O)n(-c3cccc(NC(=O)CCl)c3)c2n1` [Example 12, 2-chloro-N-(3-(2-((2-methoxy-4-(4-methyl-1-piperazinyl)phenyl)amino)-7-oxopyrido[2,3-d]pyrimidin-8(7H)-yl)phenyl)acetamide], the pIC50 in test [1] is 7.74; in test [2], 6.17.
With `C=CC(=O)Nc1ccc(F)c(-n2c(=O)ccc3cnc(Nc4ccc(N5CCN(C)CC5)cc4OC)nc32)c1` [Example 10, N-(4-fluoro-3-(2-((2-methoxy-4-(4-methyl-1-piperazinyl)phenyl)amino)-7-oxopyrido[2,3]pyrimidin-8(7H)-yl)phenyl)-2-propenamide], the negative-log IC50 (pIC50) is 8.40 in test [1], 8.40 in test [2], 7.08 in test [3] and 8.70 in test [4].
Regarding `COc1cc(N2CCN(C)CC2)ccc1Nc1ncc2ccc(=O)n(-c3cccc(NC(=O)/C=C/CN(C)C)c3)c2n1` [Example 9, (2E)-4-(dimethylamino)-N-(3-(2-((2-methoxy-4-(4-methyl-1-piperazinyl)phenyl)amino)-7-oxopyrido[2,3-d]pyrimidin-8(7H)-yl)phenyl)-2-butenamide], the pIC50 in test [1] was 7.28; in test [2], 6.44.
`C=CC(=O)Nc1cccc(-n2c(=O)cc(C)c3cnc(Nc4ccc(N5CCOCC5)cc4OC)nc32)c1` [Example 7, N-(3-(2-((2-methoxy-4-(4-morpholinyl)phenyl)amino)-5-methyl-7-oxopyrido[2,3-d]pyrimidin-8(7H)-yl)phenyl)-2-propenamide]: the negative-log IC50 (pIC50) in test [1] was 8.55. In test [2], the “H1975 cell killing IC50” value was “undefined”.
With `COc1cc(N2CCN(C)CC2)ccc1Nc1ncc2ccc(=O)n(-c3cccc(NC(=O)CCN(C)C)c3)c2n1` [Example 13, 3-(dimethylamino)-N-(3-(2-((2-methoxy-4-(4-methylpiperazin-1-yl)phenyl)amino)-7-oxopyrido[2,3-d]pyrimidin-8(7H)-yl)phenyl)propanamide], the pIC50 is 7.12 in test [1] and 6.89 in test [2].
For the compound `C=CC(=O)Nc1cccc(-n2c(=O)ccc3cnc(Nc4cnc(N5CCN(C)CC5)cc4OC)nc32)c1` [Example 8, N-(3-(2-((4-methoxy-6-(4-methyl-1-piperazinyl)-3-pyridinyl)amino)-7-oxopyrido[2,3-d]pyrimidin-8(7H)-yl)phenyl)-2-propenamide], the pIC50 in test [1] was 7.68; in test [2], 7.04.
Regarding `C=CC(=O)Nc1cccc(-n2c(=O)ccc3cnc(Nc4ccc(N5CCOCC5)cc4OC)nc32)c1` [Example 2, N-(3-(2-((2-methoxy-4-(4-morpholinyl)phenyl)amino)-7-oxopyrido[2,3-d]pyrimidin-8(7H)-yl)phenyl)-2-propenamide], the “H1975 cell killing IC50” value in test [2] is reported as “undefined”.
Take `C=CC(=O)Nc1cccc(-n2c(=O)cc(C)c3cnc(Nc4ccc(N5CCN(C)CC5)cc4OC)nc32)c1` [Example 5]: the pIC50 is 8.00 in test [1]; 8.40 in test [2]; 8.10 in test [5]; 6.49 in test [3]; 8.55 in test [4].
As for `C=CC(=O)Nc1cccc(-n2c(=O)ccc3cnc(Nc4ccc(NC5CN(C(C)=O)C5)cc4OC)nc32)c1` [Example 14, N-(3-(2-((4-((1-acetylazetidin-3-yl)amino)-2-methoxyphenyl)amino)-7-oxopyrido[2,3-d]pyrimidin-8(7H)-yl)phenyl)acrylamide], the results for the pIC50 in test [1] and in test [2] were 7.62 and 6.72, respectively.
